Test [1] deals with HIV-1BAL. As to the kind of experiment: HIV-1BAL infection of CD8-depleted PBMC, FACS (intracellular p24, CD4, CD62L). As to conditions: for accumulation of infected CD4−/CD62L− T cells (loss of CD62L): HIV-1BAL infected cells; for effect on HIV-1BAL infection (intracellular p24): day 7 post infection, compounds at 100 μM, GI254023X at 250 μM. The test is classed as cell-based.
The target of test [2] is T1, recombinant ADAM10 (Homo sapiens, UniProt O14672).
T1 construct: purchased R&D systems, Inc
T1 sequence (O14672 214-748): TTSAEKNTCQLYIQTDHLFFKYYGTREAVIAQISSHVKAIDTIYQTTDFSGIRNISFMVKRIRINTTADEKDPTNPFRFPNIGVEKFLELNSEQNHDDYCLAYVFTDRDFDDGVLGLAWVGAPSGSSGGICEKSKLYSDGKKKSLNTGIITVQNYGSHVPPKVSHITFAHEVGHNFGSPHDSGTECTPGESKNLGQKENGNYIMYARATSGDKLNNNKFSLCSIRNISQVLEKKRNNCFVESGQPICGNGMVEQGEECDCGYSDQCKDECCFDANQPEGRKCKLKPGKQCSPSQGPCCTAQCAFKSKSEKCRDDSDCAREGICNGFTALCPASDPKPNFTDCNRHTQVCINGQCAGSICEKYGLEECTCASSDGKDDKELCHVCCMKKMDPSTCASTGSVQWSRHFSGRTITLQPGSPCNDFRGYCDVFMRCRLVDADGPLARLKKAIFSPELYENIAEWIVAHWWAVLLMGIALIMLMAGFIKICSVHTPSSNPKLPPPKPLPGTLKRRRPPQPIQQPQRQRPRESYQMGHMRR
Kind of test: Cleavage of fluorogenic CD62L peptide by recombinant ADAM10. The class given is biochemical. Conditions: 2 μM compound. The source says: A fluorescence based enzymatic assay was used to measure the cleavage of fluorogenic TNF-α and L-selectin (CD62L) peptides by either recombinant ADAMs or PBMC from healthy donors. The fluorogenic substrate, synthesized by Biomatik^3, was a Dabcyl (4-(4-dimethylaminophenylazo)benzoyl)- and Edans (5-[(2-aminoethyl)amino]naphthalene-1-sulfonic acid)- conjugated 12 amino acid peptide: Dabcyl-[…]-Edans that corresponds to the extracellular membrane proximal region of CD62L. The fluorescence of the Edans group is quenched by the Dabcyl group in the intact substrate and the cleavage of the CD62L substrate peptide results in a fluorescence emission at 490 nm. The cleavage of fluorogenic TNF-α peptide (ES003, R &D systems, Inc) was detected at emission of 405 nm. The cleavage was measured in a kinetic assay every 3 min for 4 h in black 96-well plates using a Synergy_h1 fluorescent plate reader (BioTek) with 340 nm excitation and 490 nm emission wavelengths. For cleavage using recombinant ADAMs, each enzymatic reaction contained 50–200 ng of recombinant ADAM17 or 10 (R&D systems, Inc) mixed with 5–10 μM fluorogenic TNFα peptide ES003 (R&D systems, Inc) or CD62L peptide with or without indicated inhibitors in 100 μL assay buffer of 25 mM Tris at pH 9.0, 2.5 μM ZnCl2, and 0.005% Brij-35 (w/v). For cell-based cleavage of the fluorescent CD62L-peptide substrate, 300,000 PBMC at 2×10^6/ml density were mixed with 10 μM fluorescent CD62L-peptide and various inhibitors in a black 96-well plate in 150 μL culture media (RPMI 1640, 10% FBS, 1% penicillin streptomycin). PBMC were stimulated with anti-CD3 antibody for 2–4 days as described above.
Supplemental Figure 3. Inhibition of ADAM10 enzymatic activity by 14mb. A) chemical structure of 3-Cl-phenylpyrrolidine tartrate diamide analogs 14m and 15. B)Inhibition of recombinant ADAM10 cleavage of a fluorogenic CD62L peptide substrate in the presence of titrating concentrations of 14mb. The concentration-dependent enzymatic activities are fitted with non-linear regression of normalized inhibition response model. C). Inhibition of ADAM10 enzymatic cleavage of fluorogenic CD62L peptide by various […]

Test [3] deals with T2, recombinant ADAM17 (Homo sapiens, UniProt P78536).
T2 construct: purchased R&D systems, Inc
T2 sequence (P78536 215-824): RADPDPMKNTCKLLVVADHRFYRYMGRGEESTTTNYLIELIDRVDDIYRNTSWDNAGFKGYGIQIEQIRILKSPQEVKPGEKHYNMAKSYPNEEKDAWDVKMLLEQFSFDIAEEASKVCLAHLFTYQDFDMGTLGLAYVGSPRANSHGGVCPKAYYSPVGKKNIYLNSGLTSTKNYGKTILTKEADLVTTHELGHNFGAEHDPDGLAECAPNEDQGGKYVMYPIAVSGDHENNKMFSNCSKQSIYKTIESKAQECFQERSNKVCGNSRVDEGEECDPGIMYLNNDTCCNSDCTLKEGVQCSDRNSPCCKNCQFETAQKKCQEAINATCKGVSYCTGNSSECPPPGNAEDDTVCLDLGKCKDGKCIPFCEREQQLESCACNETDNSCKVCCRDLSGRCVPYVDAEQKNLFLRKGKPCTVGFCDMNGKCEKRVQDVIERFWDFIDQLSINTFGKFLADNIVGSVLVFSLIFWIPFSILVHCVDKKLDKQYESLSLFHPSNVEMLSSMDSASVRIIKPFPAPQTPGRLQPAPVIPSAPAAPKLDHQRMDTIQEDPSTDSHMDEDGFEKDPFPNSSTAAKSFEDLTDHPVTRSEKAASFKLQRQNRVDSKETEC
As to the kind of experiment: Kinetic cleavage of fluorogenic TNF-α peptide ES003 by recombinant ADAM17. The test is classed as biochemical. Conditions: for Ki: ES003 substrate, 4-h time point, non-linear regression, read-out: Inhibition constant Ki ADAM17. The source says:
A fluorescence based enzymatic assay was used to measure the cleavage of fluorogenic TNF-α and L-selectin (CD62L) peptides by either recombinant ADAMs or PBMC from healthy donors. The fluorogenic substrate, synthesized by Biomatik^3, was a Dabcyl (4-(4-dimethylaminophenylazo)benzoyl)- and Edans (5-[(2-aminoethyl)amino]naphthalene-1-sulfonic acid)- conjugated 12 amino acid peptide: Dabcyl-[…]-Edans that corresponds to the extracellular membrane proximal region of CD62L. […] The cleavage was measured in a kinetic assay every 3 min for 4 h in black 96-well plates using a Synergy_h1 fluorescent plate reader (BioTek) with 340 nm excitation and 490 nm emission wavelengths. […] PBMC were stimulated with anti-CD3 antibody for 2–4 days as described above.
96-well plate with data recorded every 3 minutes for 4 hours using a Synergy_h1 fluorescent plate reader. Each enzymatic reaction contained 50 -200 ng
Figure 2B and 2C bar diagrams are generated using the
data points at 4 hour time point of the enzymatic cleavages.

Experimental findings from publication PMC10987949, “Inhibition of HIV-1 release by ADAM metalloproteinase inhibitors” (Frontiers in Microbiology, 2024) are described below.

“Also recorded” adds a separate entry of the source.

In the case of `CC1(C)SCCN(S(=O)(=O)c2ccc(Oc3ccncc3)cc2)[C@H]1C(=O)NO` [prinomastat], in test [1], the “accumulation of infected CD4−/CD62L− T cells (loss of CD62L)” value (“accumulation … (loss of CD62L)” for short) was “reduced the accumulation” and the “effect on HIV-1BAL infection (intracellular p24)” value (shortened to “effect on HIV-1BAL infection”) is “inhibited HIV-1BAL infections”. In test [2], the “inhibition of ADAM10 cleavage of CD62L substrate peptide” value (from here on “inhibition … of CD62L substrate peptide”) is recorded as “completely suppressed”. Also, in test [3], the “concentrations inhibiting ADAM17 enzymatic activity” value lay in the range of 20 to 50 nM and the Ki (in general, a dissociation constant, usually derived from enzyme kinetics or from competition with a known ligand) was determined as 48 ± 36 nM. Also, the “inhibition of ADAM17 cleavage of ES003” value in test [3] (2 μM compound) is “inhibited both ADAM10 and 17”.
Take `CNC(=O)[C@H](Cc1ccccc1)NC(=O)[C@H](CC(C)C)[C@H](CSc1cccs1)C(=O)NO` [BB-94, Batimastat]: the “inhibition when added on day 3 and 5 after initiation of infection” value in test [1] (100μM, added day 0, 3, 5 post infection) was “progressive reduction in its inhibition”. In addition, in test [1], the “accumulation … (loss of CD62L)” value is reported as “reduced the accumulation” and the “effect on HIV-1BAL infection” value is listed as “inhibited HIV-1BAL infections”. Further, in test [2], the “inhibition … of CD62L substrate peptide” value was “indistinguishable with that of fluorogenic peptide CD62L-only without the enzyme; also recorded: completely suppressed”.
With `CNC(=O)[C@@H](NC(=O)[C@H](CCCc1ccccc1)[C@H](C)N(O)C=O)C(C)(C)C` [GI254023X], in test [1], the “accumulation … (loss of CD62L)” value was “did not inhibit the accumulation” and the “effect on HIV-1BAL infection” value is listed as “fail to significantly suppress the viral infections”. The “inhibition … of CD62L substrate peptide” value in test [2] is “completely suppressed”. Also, in test [3], the Ki was found to be 3600 ± 380 nM.
